PubChem BioAssay AID179 (DTP/NCI, 2004)
“And” between values parts separate entries of the source, which are not always exact repeats. Equal values may be shown once. The source made the active and inactive calls.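 Rule for the calls: active = compounds giving half or more protection of infected cells from virus-caused growth loss, again on retest; inactive = the rest.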

Test system: CEM cells HIV-1 protection, formazan growth assay
Assay: NCI AIDS Antiviral Assay
Conditions: for IC50: measured here: growth of uninfected CEM cells
How it was run: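 Protection of CEM cells against HIV-1 was scored from cell growth (soluble formazan) across five concentrations, with parallel uninfected cells. Lack of protection may reflect toxicity.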

SMILES | outcome | EC50 | IC50
CC(CC(=O)N[C@H](C[C@@H](C)C(Cl)(Cl)Cl)c1nccs1)C(Cl)(Cl)Cl (stereo not given in full) | active | – | –
NC(=O)c1ccc(NCC2=CC(=O)C=CC2=O)cc1 | – | > 40.7 µM | 17.4 µM
COc1ccc(NC(=O)C(/C=N\C(=S)NNC(C)=O)=C(\C)O)cc1 | – | > 200 µM | > 200 µM
CCOCC(/C=N/N=C(N)N)=N\N=C(N)N | – | > 759 µM | > 759 µM
Cc1cccc2c1N(C(=O)/C=C\C(=O)O)C(c1c(C)[nH]c3ccccc13)C2 (stereo not given) | – | > 138 µM | 75.9 µM
CC(C)CCCC(C)C1CCC2[C@@H]3CCC4C[C@@H](CC=C(c5cc(Cl)c(O)c(C(=O)O)c5)c5cc(Cl)c(O)c(C(=O)O)c5)CC[C@]4(C)C3CC[C@]12C (stereo not given in full) | – | 21.4 µM | 316 µM
Nc1nc(=Nc2ccccc2)ss1 | inactive | – | –
CCOC(=O)CCCCCNc1nc(Cl)nc(Cl)n1 | – | > 200 µM | > 200 µM
Cc1nc2sccn2c1C(=O)NNC(N)=S | – | > 372 µM | > 372 µM
CC(=O)CCC(=O)C(=[N+]=[N-])S(=O)(=O)c1ccccc1 | – | > 891 µM | 151 µM
Cn1cnc([N+](=O)[O-])c1Sc1nnc(-c2ccc(Cl)cc2)n1C | – | > 372 µM | 3.02 µM
Nc1ncnc2c1ncn2C1COC(CO)C1CO (stereo not given) | – | 87.1 µM | > 200 µM
NC1=NS(=O)(=O)N=C(N)C1=NNc1ccccc1 | – | > 933 µM | 141 µM
c1ccc(-c2nc3sc(-c4ccccc4)nc3s2)cc1 | – | > 200 µM | > 200 µM
CC(=O)OCC1Cn2c(c(-c3ccccc3)c(=O)[nH]c2=S)O1 (stereo not given) | – | > 603 µM | > 603 µM
Brc1cccc(-c2nc3ccccc3[nH]2)c1 | – | > 132 µM | 87.1 µM
COc1ccccc1NC(=O)CC(=O)NN | – | > 200 µM | > 200 µM
COc1c(O)c2c(=O)cc(OC)c3c4c(OC)cc(=O)c5c(O)c(OC)c6c(c(c1C(C(C)O)C6C(C)O)c23)c54 (stereo not given) | – | > 2 µM | 0.339 µM
Cc1ncc([N+](=O)[O-])n1CCN(C)CCCCn1ccnc1[N+](=O)[O-] | – | > 200 µM | > 200 µM
CN(CCCNc1ccc2ncn3c4ccccc4c(=O)c1c23)CCCN1C(=O)c2cccc3cc([N+](=O)[O-])cc(c23)C1=O | – | 0.01 µM | 0.0316 µM
Clc1ccccc1C1N2CCCCC2[C@@H]2c3[nH]c4ccccc4c3CCN12 (stereo not given in full) | – | > 50.1 µM | > 50.1 µM

SMILES | outcome | EC50 | IC50
CCN(CC)CCC(=O)NC1c2ccc(Cl)cc2Oc2c(C)cccc21 (stereo not given) | – | > 200 µM | 9.55 µM
CCOC(=O)C1=C(C)N(c2ccc(C)cc2)C2=C(C(=O)N(c3ccccc3)C2c2ccccc2)C1c1ccccc1 (stereo not given) | – | > 5.01 µM | > 5.01 µM
CS(=O)(=O)OCC1OS(=O)OC1COS(C)(=O)=O (stereo not given) | – | > 200 µM | 4.9 µM
N#CC(=C1CCN(Cc2ccccc2)CC1)c1ccccc1 | – | > 200 µM | 81.3 µM
CC1(C)O[C@]2(C=C[C@@H]1O)CCCCO2 | – | > 251 µM | > 251 µM
O=C(O)CCC(NC(=O)c1ccc(Nc2nc3ccc(C(F)(F)F)cc3nc2C(=O)O)cc1)C(=O)O (stereo not given) | – | > 200 µM | > 200 µM
CS(=O)(=O)C1S(=O)(=O)OCCOS1(=O)=O | – | > 891 µM | > 891 µM
O=C(CSc1nnc(-c2ccc(N=Cc3ccc(Cl)cc3)cc2)o1)Nc1cccc([N+](=O)[O-])c1 | – | > 5.5 µM | 2.24 µM
CC1=N/C(=C\c2ccc(Br)cc2)C(=O)O1 | – | > 135 µM | > 135 µM
O=C(OCC1CCCN2CCCCC12)c1ccncc1 (stereo not given) | – | 19.1 µM | > 200 µM
C[C@H]1[C@H](C)CC[C@]2(C(=O)O)CCC3(COC(=O)/C=C/c4ccc(O)cc4)C(=CCC4[C@@]5(C)CC[C@H](O)C(C)(C)C5CC[C@]43C)[C@H]12 (stereo not given in full) | – | > 11.5 µM | 5.37 µM
O=c1c(-c2ccccc2)c(S)sc(S)c1-c1ccccc1 | – | > 200 µM | > 200 µM
CCN(CC)C(C)(O)CN (stereo not given) | – | > 200 µM | > 200 µM
CCN(CC)Cc1c(OC)ccc2[nH]c3c4ccc(Cl)cc4ncc3c12 | – | > 200 µM | 1.1 µM
CCC[CH2][Sn]([Cl])([CH2]CCC)[CH2]CCC | inactive | – | –
O=[N+]([O-])O[C@H]1CO[C@H]2[C@@H]1OC[C@H]2O[N+](=O)[O-] | – | > 200 µM | > 200 µM
CCOC1CCC2C(CCC(/C=C/c3ccc(O)c4ncccc34)N2C)C1 (stereo not given) | – | > 28.2 µM | 4.9 µM
COc1cc(COC(=O)N[C@H](C(=O)O)C(C)(C)C)c([N+](=O)[O-])cc1OC | – | > 676 µM | > 676 µM
CN(C)/C(N)=N/C(N)=S | inactive | – | –
Cn1[nH]c2[nH]c(=S)sc(=S)c2c1=O | – | > 200 µM | > 200 µM
CC1=C(C(=O)Nc2ccccc2)C(c2ccc(C(C)C)cc2)C(C(=O)Nc2ccccc2)=C(C)N1 | inactive | – | –

SMILES | outcome | EC50 | IC50
CC1(C)CCc2cc3c(cc2O1)OC(C)(C)C1c2c(ccc4c2CCC(C)(C)O4)OC31 (stereo not given) | inactive | – | –
[N-]=[N+]=NC1OC(=O)C(Cl)=C1N=P(c1ccccc1)(c1ccccc1)c1ccccc1 (stereo not given) | – | > 69.2 µM | 7.94 µM
O=[As](O)(O)c1ccc(N=Nc2ccc(O)cc2)cc1 | – | > 200 µM | 138 µM
O=C1c2ccccc2S(=O)(=O)N1Sc1ccccc1[N+](=O)[O-] | – | > 200 µM | 17 µM
O=C(O)c1cc(I)cc(I)c1O.O=[N+]([O-])C1CCC(O)C2[N-]CCCC21.[Cu+] (stereo not given) | – | > 200 µM | 5.62 µM
O=c1cc2oc3cc(O)c(O)cc3c(-c3ccccc3)c-2cc1O | – | > 200 µM | 39.8 µM and 83.2 µM
Cc1n(-c2ccccc2)c2c([n+]1Cc1ccc([N+](=O)[O-])cc1)C(=O)c1ccccc1C2=O | – | > 70.8 µM | 3.63 µM
CN1c2ccccc2N(C)C2C1N(C)c1ccccc1N2C (stereo not given) | – | > 64.6 µM | 11 µM
CC[CH2][Sn]([CH2]CC)([O]C(=O)Cc1ccc(F)cc1)[O][Sn]([CH2]CC)([CH2]CC)[O]C(=O)Cc1ccc(F)cc1 | – | > 5.13 µM | 3.24 µM
O=C1CC2CC(CC3(CO3)C2)C1F (stereo not given) | – | > 200 µM | > 200 µM
CC(C)(C)OC(=O)CC(NC(=O)OC(C)(C)C)C(=O)Oc1ccc([N+](=O)[O-])cc1 (stereo not given) | – | > 200 µM | > 200 µM
CC(=O)OC1CC[C@@]2(C)C(=CC[C@@H]3[C@@H]2CC[C@]2(C)Nc4c(cnn4-c4ccc(F)cc4)C[C@@H]32)C1 (stereo not given in full) | – | > 10 µM | > 10 µM
N#C/C(=C\c1ccccc1[N+](=O)[O-])C(=O)O | – | > 603 µM | 363 µM
CC(=O)OCC1OC(Sc2nc(-c3ccc(Cl)cc3)c(C#N)c(=O)n2C2OC(COC(C)=O)C(OC(C)=O)C(OC(C)=O)C2OC(C)=O)C(OC(C)=O)C(OC(C)=O)C1OC(C)=O (stereo not given) | inactive | > 100 µM | 18.6 µM
COc1ccc2c3c1C(=O)CCCC3CO2 (stereo not given) | inactive | – | –
N#C/C(=C1\SC(N=Nc2ccccc2)C(=O)N1c1ccccc1)c1nc2ccccc2[nH]1 (stereo not given) | – | > 6.03 µM | > 6.03 µM
NC1=CN(Cc2ccccc2)C2=N/C(=C\c3ccccc3)C(=O)N12 | – | > 200 µM | 77.6 µM
O=C(/C=C\c1cccc(C(F)(F)F)c1)c1ccccc1 | inactive | – | –
CCOC(=O)C(=[N+]=[N-])C(=O)CSC#N | – | > 200 µM | 10.5 µM
O=C(NCCCNC(=O)c1ccc2cc(O)c(O)cc2c1)c1ccc2cc(O)c(O)cc2c1 | inactive | – | –
O=C(N/N=C/c1ccc(Br)cc1)N/N=C/c1ccc(Br)cc1 | – | > 200 µM | 31.6 µM

SMILES | outcome | EC50 | IC50
COC(=O)N(CCc1ccccc1)C(C)(C)C#N | – | > 29.5 µM | > 29.5 µM
CC(=O)OCC1OC(N2C(=O)[C@H](Oc3ccccc3)[C@@H]2c2ccccc2)C(OC(C)=O)C(OC(C)=O)C1OC(C)=O (stereo not given in full) | – | > 100 µM | > 100 µM
Cc1ccc(NC(=O)C(=O)C2C(=O)C3=C(CC2(C)C)NC2C=CC=CC2S3)c(C)c1 (stereo not given) | – | > 117 µM | > 117 µM
CN(C)CCc1ccnc2nc(-c3ccc4ccccc4c3)cn12 | – | > 200 µM | 32.4 µM
CC(=O)OC(C)(C)/C=C/C(=O)[C@](C)(O)[C@H]1[C@H](O)C[C@@]2(C)[C@@H]3CC=C4[C@@H](C[C@H](O)C(=O)C4(C)C)[C@]3(C)C(=O)C[C@]12C | – | > 0.2 µM | 0.00955 µM
O=C(Nc1sccc1S(=O)(=O)c1ccc(Cl)cc1)C(F)(F)F | – | > 200 µM | 9.55 µM
CC#CC(OCC)(OCC)OCC | – | > 1350 µM | > 1350 µM
CCC1(CC2CCCN(C)C2)c2ccccc2Sc2ccccc21 (stereo not given) | – | > 200 µM | 11 µM
CC(CN1CCCC1)C(O)(Cc1ccccc1)c1ccc(Cl)cc1 (stereo not given) | – | > 200 µM | 30.9 µM
O=c1c2ccccc2oc2ccccc12 | – | > 26.3 µM | > 26.3 µM
CC(NC(=O)C(C)C(=O)Nc1ccc(C(F)(F)F)cc1)C(N)=O (stereo not given) | – | > 200 µM | > 200 µM
COc1ccc2c(c1)[n+]([O-])c(/C(C)=N/NC(=O)c1ccccc1O)c(C)[n+]2[O-] | – | > 245 µM | > 245 µM
c1cc[c]([Sn]([O]c2cccc3cccnc23)([c]2ccccc2)[c]2ccccc2)cc1 | inactive | – | –
Cc1cccc(NC(=O)CSc2nnc(-c3ccc(N=Cc4ccc(Cl)cc4)cc3)o2)c1 | – | > 21.4 µM | > 21.4 µM
Cc1c(N)nc(C(CC(N)=O)NCC(N)C(N)=O)nc1C(=O)NC(C(=O)NC(C)C(O)C(C)C(=O)NC(C(=O)NCCc1nc(-c2nc(C(=O)NCCCNC(C)c3ccccc3)cs2)cs1)C(C)O)C(OC1OC(CO)C(O)C(O)C1OC1OC(CO)C(O)C(OC(N)=O)C1O)c1cnc[nH]1 (stereo not given) | inactive | – | –
CCOC(=O)C1=C(C)N(c2ccccc2)C2=C(C(=O)N(c3ccccc3)C2c2ccccc2)C1c1ccccc1 (stereo not given) | – | > 67.6 µM | > 67.6 µM
CN(C)c1ccc(Cc2cc(C(C)(C)C)cc(C(C)(C)C)c2O)cc1 | inactive | – | –
CC[N+](CC)(CCNCC(N)=O)CC(N)=O | – | > 200 µM | > 200 µM
Cc1cc2nc3c4ccccc4n(C)c3nc2cc1C | – | > 7.59 µM | 5.25 µM
Cc1cc(NS(=O)(=O)c2ccc(NC(=O)c3ccc(Cl)c4c(Nc5ccc(S(=O)(=O)Nc6cc(C)on6)cc5)c5ccccc5nc34)cc2)no1 | – | > 47.9 µM | > 47.9 µM
